Results as given in US8853412B2, “Pyrrolidinone derivatives as GPR119 modulators for the treatment of diabetes, obesity, dyslipidemia and related disorders” (Sanofi, priority 2012, dated 2014).

Biological target: T1, human GPR119 (Homo sapiens, UniProt Q8TDV5)
T1 construct: expressed in transfected cells; host or cells: HEK-293 cell line stably expressing recombinant GPR119
T1 sequence (Q8TDV5 1-335): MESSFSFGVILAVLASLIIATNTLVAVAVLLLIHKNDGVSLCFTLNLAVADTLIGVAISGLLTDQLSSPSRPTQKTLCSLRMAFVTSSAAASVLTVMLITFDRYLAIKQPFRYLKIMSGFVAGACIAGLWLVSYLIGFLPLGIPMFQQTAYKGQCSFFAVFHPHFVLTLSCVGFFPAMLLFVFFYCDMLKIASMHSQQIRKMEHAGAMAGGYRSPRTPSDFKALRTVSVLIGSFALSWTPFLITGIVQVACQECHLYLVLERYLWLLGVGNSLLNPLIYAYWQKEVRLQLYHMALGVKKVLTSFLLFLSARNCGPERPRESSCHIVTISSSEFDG
Test: Functional cellular assay measuring GPR119-mediated cAMP release (HTRF), HEK-293 cells stably expressing recombinant GPR119
Assay type: cell-based
Conditions: cell line expressing human GPR119; cAMP response, 30 minutes at room temperature
Protocol: Functional Cellular Assays Measuring GPR119-Mediated cAMP Release.
Compounds of the invention, which are agonists of GPR119, were characterized by functional assays measuring the cAMP response of HEK-293 cell lines stably expressing recombinant GPR119 from man, mouse or rat, or by using a hamster cell line HIT-T15 expressing GPR119 endogenously. The cAMP content was determined using a kit based on homogenous time-resolved fluorescence (HTRF) from Cisbio Corp. (cat. no. 62AM4PEC). For preparation, cells were split into T175 culture flasks and grown to near confluency in medium (DMEM/10% FCS for HEK-293 cells, and F-12K medium/10% horse serum/2.5% FCS for HIT-T15 cells, respectively). Medium was then removed and cells washed with PBS lacking calcium and magnesium ions, followed by proteinase treatment with accutase (Sigma-Aldrich, cat. no. A6964). Detached cells were washed and resuspended in assay buffer (1×HBSS; 20 mM HEPES, 0.1% BSA, 2 mM IBMX) and cellular density determined. They were then diluted to 400000 cells/mL and 25 μL-aliquots dispensed to the wells of 96-well plates. For measurement, 25 μL of test compound in assay buffer was added and incubated for 30 minutes at room temperature. After addition of HTRF reagents diluted in lysis buffer, the plates were incubated for 1 hour, followed by measuring the fluorescence ratio at 665 vs. 620 nm. Potency of the agonists was quantified by determining the concentrations that caused 50% of the maximal response/activation (EC50). See Table 10 for exemplary data obtained using the cell line expressing human GPR119.

| EC50 | SMILES |
| --- | --- |
| 242 nM | N#Cc1cc(O[C@@H]2CCN(c3cc(F)c4c(c3)C(=O)CC4)C2=O)cnc1OCC1CC1 [Example 8-05] |
| 65 nM | CCCOc1cc(O[C@@H]2CCN(c3cc(F)c4c(c3)C(=O)CC4)C2=O)ccn1 [Example 5-05] |
| 258 nM | O=C1CCc2c(F)cc(N3CC[C@H](Oc4ccc(OCCC5CC5)nc4)C3=O)cc21 [Example 3-11] |
| 1050 nM | CC(C)Oc1ccc(O[C@H]2CCN(c3cc(F)c4c(c3)C(=O)CC4)C2=O)cn1 [Example 3-20] |
| 283 nM | Cc1cc(N2CC[C@@H](Oc3ccc(OCC4CC4)nc3)C2=O)cc2c1CCC2=O [Example 4-02] |
| 11 nM | CCCCSc1ccc(O[C@@H]2CCN(c3cc(F)c4c(c3)C(=O)CC4)C2=O)cn1 [Example 3-07] |
| 81 nM | CC(C)CCCc1ccc(O[C@@H]2CCN(c3cc(F)c4c(c3)C(=O)CC4)C2=O)cn1 [Example 3-14] |
| 32 nM | CCCCCOc1cc(O[C@@H]2CCN(c3cc(F)c4c(c3)C(=O)CC4)C2=O)ccn1 [Example 5-06] |
| 64 nM | O=C1CCc2c(Cl)cc(N3CC[C@@H](Oc4ccc(OCC5CC5)nc4)C3=O)cc21 [Example 4-01] |
| 11 nM | O=C1CCc2c(F)cc(N3CC[C@@H](Oc4ccc(SCC5CC5)nc4)C3=O)cc21 [Example 3-17] |
| 281 nM | O=C1CCc2c(F)cc(N3CC[C@H](Oc4ccc(OCC5CC5)nc4)C3=O)cc21 [Example 3-12] |
| 29000 nM | CC(=O)c1ccc(O[C@@H]2CCN(c3cc(F)c4c(c3)C(=O)CC4)C2=O)cn1 [Example 3-15] |

The next lines start with the compound.

| SMILES | EC50 |
| --- | --- |
| COCC(C)Oc1ccc(O[C@@H]2CCN(c3cc(F)c4c(c3)C(=O)CC4)C2=O)cn1 (stereo partly shown) [Example 2-05] | 77 nM |
| CCOCCCOc1ccc(O[C@@H]2CCN(c3cc(F)c4c(c3)C(=O)CC4)C2=O)cn1 [Example 2-53] | 21 nM |
| CC(=O)N1CCCC(Oc2ccc(O[C@@H]3CCN(c4cc(F)c5c(c4)C(=O)CC5)C3=O)cn2)C1 (stereo partly shown) [Example 2-70] | 3010 nM |
| COc1ccc(O[C@@H]2CCN(c3cc(F)c4c(c3)C(=O)CC4)C2=O)cn1 [Example 2-01] | 223 nM |
| O=C1CCc2c(F)cc(N3CC[C@@H](Oc4ccc(OCC5CCCO5)nc4)C3=O)cc21 (stereo partly shown) [Example 2-25] | 13000 nM |
| CC(Oc1ccc(O[C@@H]2CCN(c3cc(F)c4c(c3)C(=O)CC4)C2=O)cn1)C1CC1 (stereo partly shown) [Example 2-09] | 16 nM |
| COCCOc1ccc(O[C@@H]2CCN(c3cc(F)c4c(c3)C(=O)CC4)C2=O)cn1 [Example 2-13] | 141 nM |
| CC(C)Oc1ccc(O[C@@H]2CCN(c3cc(F)c4c(c3)C(=O)CC4)C2=O)cn1 [Example 2-24, (R)-1-(7-Fluoro-3-oxo-indan-5-yl)-3-(6-isopropoxy-pyridin-3-yloxy)-pyrrolidin-2-one] | 13 nM |
| CCCCCOc1ccc(O[C@@H]2CCN(c3cc(F)c4c(c3)C(=O)CC4)C2=O)cn1 [Example 2-17] | 16 nM |
| O=C1CCc2c(F)cc(N3CC[C@@H](Oc4ccc(Oc5ccc(F)cc5)cc4)C3=O)cc21 [Example 1-03] | 33 nM |
| CC(C)N(CCOc1ccc(O[C@@H]2CCN(c3cc(F)c4c(c3)C(=O)CC4)C2=O)cn1)C(C)C [Example 2-58] | 7530 nM |
| CCCOc1ccc(O[C@@H]2CCN(c3cc(F)c4c(c3)C(=O)CC4)C2=O)cn1 [Example 2-18] | 5 nM |
| O=C1CCc2c(F)cc(N3CC[C@@H](Oc4ccc(OCc5ccccc5)nc4)C3=O)cc21 [Example 1-17] | 39 nM |
| CC(C)CCOc1ccc(O[C@@H]2CCN(c3cc(F)c4c(c3)C(=O)CC4)C2=O)cn1 [Example 2-22] | 9 nM |
| O=C1CCc2ccc(N3CC[C@@H](Oc4ccc(Oc5ccc(F)cc5)nc4)C3=O)cc21 [Example 1-06] | 274 nM |
| O=C1CCc2c(F)cc(N3CC[C@@H](Oc4ccc(OC(CF)CF)nc4)C3=O)cc21 [Example 2-44] | 46 nM |
